Results taken from patent publication US20260001889A1, “COMPOSITIONS USEFUL FOR MODULATING SPLICING” (Skyhawk Therapeutics, Inc., priority 2022, published 2026).

How the values were obtained:
[1] = system: ATXN3 transcripts containing exon 4; assay: ATXN3 Quantitative Splicing Assay (qPCR, E4E5 primers/probe); assay type: cell-based; settings: Homo sapiens, SK-N-MC cells, compounds for 24 h
In short: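 Exon 4-containing ATXN3 transcripts are quantified by TaqMan qPCR (E4E5 primers/probe) on cell-lysate cDNA, with total ATXN3 from the E8E9 set. Source cells: human neuroblastoma SK-N-MC, exposed for 24 h to compound at 30 μM down to 0.6 nM.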

total ATXN3 protein = assay: ATXN3 Total Protein Assay (Mesoscale Discovery, SK-N-MC cells); assay type: cell-based, Human; settings: incubation for 48 hours, MSD assay
In short: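 Readout: MSD electrochemiluminescence immunoassay of lysates, calibrated with recombinant ATXN3 and using mouse/rabbit anti-ATXN3 antibody pair. Cells (SK-N-MC, human) were exposed for 48 h to compound doses between 30 μM and 0.6 nM.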

ATXN3-HiBiT protein = assay: ATXN3 Total Protein Assay (Kelly-ATXN3-HiBiT luminescence); assay type: cell-based; settings: Kelly-ATXN3-HiBiT cells, 48 h after addition of compound
In short: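 Endogenous ATXN3-HiBiT protein in knock-in Kelly neuroblastoma cells measured by lytic HiBiT luminescence 48 h post-compound (added 24 h after seeding 2000 cells/well). Values are fold changes relative to DMSO, with viability from a parallel CellTiter-Glo plate.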

| Structure (SMILES) | IC50 [1] | IC50 (total ATXN3 protein) | EC50 (ATXN3-HiBiT protein) |
| --- | --- | --- | --- |
| C[C@H](F)[C@H](N)Cc1oc2c(NCc3c(F)cccc3F)cc(Cl)nc2c1Br [Compound 153, 2-[(2R,3S)-2-amino-3-fluorobutyl]-3-bromo-5-chloro-7-{[(2,6-difluorophenyl)methyl]amino}-1-oxa-4-azaindene] | 10000 to 40000 nM | 5000 to 10000 nM | 10000 to 40000 nM |
| N[C@@H](CCOC(F)F)Cc1oc2c(NCc3cccs3)cc(Cl)nc2c1Br [Compound 154, (S)-2-(2-amino-4-(difluoromethoxy)butyl)-3-bromo-5-chloro-N-(thiophen-2-ylmethyl)furo[3,2-b]pyridin-7-amine] | 0.01 to 100 nM | 0.01 to 100 nM | 0.01 to 100 nM |
| [2H]C([2H])([2H])OC[C@H](N)Cc1oc2c(NCc3cccs3)cc(Cl)nc2c1Br [Compound 157, 2-[(R)-2-amino-3-(2H3)methoxypropyl]-3-bromo-5-chloro-7-thenylamino-1-oxa-4-azaindene] | 0.01 to 100 nM | 0.01 to 100 nM | 0.01 to 100 nM |
| CC#Cc1cc(NCc2cccs2)c2oc(C[C@H](C)N)c(Br)c2n1 [Compound 160, 2-[(S)-2-aminopropyl]-3-bromo-5-(1-propynyl)-7-thenylamino-1-oxa-4-azaindene] | 501 to 5000 nM | 101 to 500 nM | 101 to 500 nM |
| C#Cc1cc(NCc2cccs2)c2oc(C[C@H](C)N)c(C#C)c2n1 [Compound 162, 2-[(S)-2-aminopropyl]-3,5-diethynyl-7-thenylamino-1-oxa-4-azaindene] | 0.01 to 100 nM | 0.01 to 100 nM | 101 to 500 nM |
| C=Cc1cc(NCc2cccs2)c2oc(C[C@H](C)N)c(Br)c2n1 [Compound 164, 2-[(S)-2-aminopropyl]-3-bromo-7-thenylamino-5-vinyl-1-oxa-4-azaindene] | 5000 to 10000 nM | 5000 to 10000 nM | 501 to 5000 nM |
| C[C@H](N)Cc1oc2c(NCc3cccs3)cc(C(=O)O)nc2c1Br [Compound 167, 2-[(2S)-2-aminopropyl]-3-bromo-7-[(thiophen-2-ylmethyl)amino]furo[3,2-b]pyridine-5-carboxylic acid] | 10000 to 40000 nM | 10000 to 40000 nM | 10000 to 40000 nM |
| CC[C@H](N)Cc1oc2c(NCc3cccs3)cc(Cl)nc2c1Br [Compound 169, 2-[(S)-2-aminobutyl]-3-bromo-5-chloro-7-thenylamino-1-oxa-4-azaindene] | 501 to 5000 nM | 101 to 500 nM | 101 to 500 nM |
| C#Cc1cc(NCc2cccs2)c2oc(C[C@@H](N)C3CC(F)(F)C3)c(C#C)c2n1 [Compound 178, 2-[(R)-2-amino-2-(3,3-difluorocyclobutyl)ethyl]-3,5-diethynyl-7-thenylamino-1-oxa-4-azaindene] | 501 to 5000 nM | 501 to 5000 nM | 501 to 5000 nM |
| C#Cc1c(C[C@@H](N)C2CC2)oc2c(NCc3cccs3)cc(Cl)nc12 [Compound 180, 2-[(R)-2-amino-2-cyclopropylethyl]-5-chloro-3-ethynyl-7-thenylamino-1-oxa-4-azaindene] | 101 to 500 nM | 101 to 500 nM | 101 to 500 nM |
| C#Cc1cc(NCc2cccs2)c2oc(C[C@@H](N)C3CC3)c(C#C)c2n1 [Compound 181, 2-[(R)-2-amino-2-cyclopropylethyl]-3,5-diethynyl-7-thenylamino-1-oxa-4-azaindene] | 501 to 5000 nM | 501 to 5000 nM | 501 to 5000 nM |
| N[C@@H](COC(F)F)Cc1oc2c(NCc3cccs3)cc(Cl)nc2c1Cl [Compound 188, 2-[(R)-2-amino-3-difluoromethoxypropyl]-3,5-dichloro-7-thenylamino-1-oxa-4-azaindene] | 101 to 500 nM | 101 to 500 nM | 0.01 to 100 nM |
| C[C@H](N)C(F)(F)c1oc2c(NCc3cccs3)cc(Cl)nc2c1Cl [Compound 189, 2-[(S)-2-amino-1,1-difluoropropyl]-3,5-dichloro-7-thenylamino-1-oxa-4-azaindene] | 101 to 500 nM | 101 to 500 nM | 101 to 500 nM |
| N[C@@H](CO)C(F)(F)c1oc2c(NCc3cccs3)cc(Cl)nc2c1Cl [Compound 190, (S)-2-amino-3-(3,5-dichloro-7-thenylamino-1-oxa-4-aza-2-indenyl)-3,3-difluoro-1-propanol] | 501 to 5000 nM | 501 to 5000 nM | 501 to 5000 nM |
| N[C@@H](CO)C(F)(F)c1oc2c(NCc3cccs3)cc(Cl)nc2c1Br [Compound 192, (S)-2-amino-3-(3-bromo-5-chloro-7-thenylamino-1-oxa-4-aza-2-indenyl)-3,3-difluoro-1-propanol] | 101 to 500 nM | 101 to 500 nM | 101 to 500 nM |
| COC[C@H](N)C(F)(F)c1oc2c(NCc3cccs3)cc(Cl)nc2c1Br [Compound 193, 2-[(S)-2-amino-1,1-difluoro-3-methoxypropyl]-3-bromo-5-chloro-7-thenylamino-1-oxa-4-azaindene] | 501 to 5000 nM | 501 to 5000 nM | 501 to 5000 nM |

| Structure (SMILES) | IC50 [1] | IC50 (total ATXN3 protein) | EC50 (ATXN3-HiBiT protein) |
| --- | --- | --- | --- |
| C=Cc1c(C[C@H](C)N)oc2c(NCc3cccs3)cc(Cl)nc12 [Compound 194, 2-[(S)-2-aminopropyl]-5-chloro-7-thenylamino-3-vinyl-1-oxa-4-azaindene] | 501 to 5000 nM | 501 to 5000 nM | 101 to 500 nM |
| C#Cc1c(C[C@@H](N)COC(F)F)oc2c(NCc3cccs3)cc(Cl)nc12 [Compound 196, 2-[(R)-2-amino-3-difluoromethoxypropyl]-5-chloro-3-ethynyl-7-thenylamino-1-oxa-4-azaindene] | 0.01 to 100 nM | 0.01 to 100 nM | 0.01 to 100 nM |
| C[C@H](O)Cc1oc2c(NCc3cccs3)cc(Cl)nc2c1Br [Compound 213, (S)-1-(3-bromo-5-chloro-7-thenylamino-1-oxa-4-aza-2-indenyl)-2-propanol] | 501 to 5000 nM | 501 to 5000 nM | 501 to 5000 nM |
| N[C@@H](CCOC(F)F)Cc1oc2c(NCc3nccs3)cc(Cl)nc2c1Br [Compound 216, 2-[(S)-2-amino-4-difluoromethoxybutyl]-3-bromo-5-chloro-7-{[(1,3-thiazol-2-yl)methyl]amino}-1-oxa-4-azaindene] | 101 to 500 nM | 101 to 500 nM | 101 to 500 nM |
| [2H]C([2H])(Nc1cc(Cl)nc2c(Br)c(C[C@H](C)N)oc12)c1cccs1 [Compound 221, 2-[(S)-2-aminopropyl]-3-bromo-5-chloro-7-{[(2-thienyl)(^2H2)methyl]amino}-1-oxa-4-azaindene] | 0.01 to 100 nM | 0.01 to 100 nM | 0.01 to 100 nM |
| [2H]C([2H])(Nc1cc(Cl)nc2c(Br)c(C[C@@H](N)CCOC(F)F)oc12)c1cccs1 [Compound 222, 2-[(S)-2-amino-4-difluoromethoxybutyl]-3-bromo-5-chloro-7-{[(2-thienyl)(^2H2)methyl]amino}-1-oxa-4-azaindene] | 101 to 500 nM | 0.01 to 100 nM | 0.01 to 100 nM |
| CC(C)(N)Cc1oc2c(NCc3cccs3)cc(Cl)nc2c1Br [Compound 226, 2-(2-amino-2-methylpropyl)-3-bromo-5-chloro-7-thenylamino-1-oxa-4-azaindene] | 501 to 5000 nM | 501 to 5000 nM | 501 to 5000 nM |
| NC1(Cc2oc3c(NCc4cccs4)cc(Cl)nc3c2Br)CC1 [Compound 227, 2-[(1-aminocyclopropyl)methyl]-3-bromo-5-chloro-N-(thiophen-2-ylmethyl)furo[3,2-b]pyridin-7-amine] | 501 to 5000 nM | 501 to 5000 nM | 501 to 5000 nM |
| C[C@H](F)[C@H](N)Cc1oc2c(NCc3cccs3)cc(Cl)nc2c1C#N [Compound 237, 2-[(2R,3S)-2-amino-3-fluorobutyl]-5-chloro-7-[(thiophen-2-ylmethyl)amino]furo[3,2-b]pyridine-3-carbonitrile] | 10000 to 40000 nM | 5000 to 10000 nM | 10000 to 40000 nM |
| C[C@H](N)Cc1oc2c(NCc3ccco3)cc(Cl)nc2c1C#N [Compound 238, 2-[(S)-2-aminopropyl]-5-chloro-7-(furfurylamino)-1-oxa-4-aza-3-indenecarbonitrile] | 10000 to 40000 nM | 10000 to 40000 nM | 10000 to 40000 nM |
| C[C@H](N)C(F)(F)c1oc2c(NCc3ccco3)cc(Cl)nc2c1Cl [Compound 239, 2-[(S)-2-amino-1,1-difluoropropyl]-3,5-dichloro-7-(furfurylamino)-1-oxa-4-azaindene] | 101 to 500 nM | 101 to 500 nM | 101 to 500 nM |
| C[C@H](F)[C@H](N)Cc1oc2c(NCc3cccs3)cc(Cl)nc2c1C1CC1 [Compound 240, 2-[(2R,3S)-2-amino-3-fluorobutyl]-5-chloro-3-cyclopropyl-7-thenylamino-1-oxa-4-azaindene] | 501 to 5000 nM | 501 to 5000 nM | 501 to 5000 nM |
| N[C@H](Cc1oc2c(NCc3cccs3)cc(Cl)nc2c1Br)C(F)F [Compound 242, 2-[(R)-2-amino-3,3-difluoropropyl]-3-bromo-5-chloro-7-thenylamino-1-oxa-4-azaindene] | 101 to 500 nM | 101 to 500 nM | 101 to 500 nM |
| N[C@H](Cc1oc2c(NCc3ccco3)cc(Cl)nc2c1Br)C(F)F [Compound 243, 2-[(R)-2-amino-3,3-difluoropropyl]-3-bromo-5-chloro-7-(furfurylamino)-1-oxa-4-azaindene] | 501 to 5000 nM | 101 to 500 nM | 501 to 5000 nM |
| C=C(C)c1c(C[C@H](C)N)oc2c(NCc3cccs3)cc(Cl)nc12 [Compound 252, 2-[(S)-2-aminopropyl]-5-chloro-3-isopropenyl-7-thenylamino-1-oxa-4-azaindene] | 10000 to 40000 nM | 5000 to 10000 nM | 501 to 5000 nM |
